One test has as its target T1, cIAP-1 BIR-3 (Homo sapiens, UniProt Q13490).
T1 construct: 40 nM of the respective IAP BIR3
Kind of test: Fluorescence polarization binding to cIAP-1 BIR-3 with labeled peptide AbuRPF-K(5-Fam)-NH2. As to conditions: 40 nM BIR3, 5 nM labeled peptide, reported as ranges, read-out: KD (c-IAP-1 BIR3). The procedure: (§1) The binding affinities of the compounds are reported as a KD value (μM). Briefly, various concentrations of test peptides were mixed with 5 nM of the fluorescently labeled peptide (i.e., a mutated N-terminal Smac peptide—AbuRPF-K(5-Fam)-NH2) and 40 nM of the respective IAP BIR3 for 15 min at RT in […] of 0.1M Potassium Phosphate buffer, pH 7.5 containing 100 mg/ml bovine g-globulin. Following incubation, the polarization values (mP) were measured on a Victor2V (available from PerkinElmer Life Sciences) using a 485 nm excitation filter and a 520 nm emission filter. The reported binding affinities (KD values) are supplied as ranges (A=<0.1 μM, B=0.1 μM to 1 μM, C=>1 μM to 10 μM, D=>10 μM).

The target in a further test is T2, XIAP BIR-3 (Homo sapiens, UniProt P98170).
T2 construct: 40 nM of the respective IAP BIR3
The experiment in a line: Fluorescence polarization binding to XIAP BIR-3 with labeled peptide AbuRPF-K(5-Fam)-NH2. As to conditions: 40 nM BIR3, 5 nM labeled peptide, reported as ranges. The procedure: as §1
(In fluorescence polarisation assays a small probe gives low polarisation when free and higher when bound to something large.)

The subject of test [1] is ovarian cancer cell line, SK-OV-3. Kind of test: SK-OV-3 cell growth inhibition (MTT, 72 hrs). Format: cell-based. The note with it: Homo sapiens, concentration giving 50% cell survival, reported as ranges. As for the experimental part:
Compounds of the invention also were tested for their ability to inhibit the growth of an ovarian cancer cell line, SK-OV-3. A known assay previously used for measuring cell growth (as described in Hansen, M. B., Nielsen, S. E., and Berg, K. (1989) J. Immunol. Methods 119, 203-210 and incorporated herein by reference in its entirety) was used. Briefly, SK-OV-3 cells are seeded in 96-well plates in McCoy's medium containing 10% fetal bovine serum albumin (5,000 per well) and incubated overnight at 37° C. The next day, test compounds are added at various concentrations (0.003-10 μM) and the plates are incubated at 37° C. for an additional 72 hrs. This incubation time was considered to be optimal for measuring inhibitory effects of the different compounds tested. 50 microliters of 5 mg/mL MTT reagent is added to each well and the plates are incubated at 37° C. for another three (3) hours. At the end of the three (3) hour incubation period, 50 microliters of DMSO is added to each well to dissolve cells and the optical density (OD) of the wells is measured with a microplate reader (Victor^2 1420, Wallac, Finland) at 535 nm. Cell survival (CS) was calculated using the following equation: CS=(OD treated well/mean OD control wells)×100%.
The CC50 (reported in the following tables), is defined as the drug concentration that results in 50% cell survival (CS), and is derived by calculating the point where the dose-response curve crosses the 50% CS point using GraphPad Prism. The reported CC50 values are supplied as ranges (A=<0.1 μM, B=0.1 μM to 1 μM, C=>1 μM to 10 μM, D=>10 μM).

Experimental findings from patent publication US8415486B2, “IAP inhibitors” (TetraLogic Pharmaceuticals Corp., priority 2009, dated 2013) are described below.

What is called Kd is the concentration at which binding is half-saturated. As a reminder, the CC50 is the concentration that lowers cell viability or growth by half.

T2 sequence (P98170 241-356 limits assumed): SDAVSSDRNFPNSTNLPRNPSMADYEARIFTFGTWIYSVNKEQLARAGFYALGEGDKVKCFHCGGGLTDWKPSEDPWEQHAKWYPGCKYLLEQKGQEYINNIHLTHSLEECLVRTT
T1 sequence (Q13490 253-363 limits assumed): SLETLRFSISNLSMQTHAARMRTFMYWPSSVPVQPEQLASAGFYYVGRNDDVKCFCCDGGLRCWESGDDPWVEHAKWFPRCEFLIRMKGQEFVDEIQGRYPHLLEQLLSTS

For `CN[C@@H](C)C(=O)N[C@H](C(=O)N1CC[C@@H]2[C@H]1[C@@H](Oc1ccc(F)c(F)c1)CN2c1ncccn1)C(C)(C)C` [Example 18, N-{1-[6-(3,4-Difluoro-phenoxy)-4-pyrimidin-2-yl-hexahydro-pyrrolo[3,2-b]pyrrole-1-carbonyl]-2,2-dimethyl-propyl}-2-methylamino-propionamide], the Kd on cIAP-1 BIR-3 and at XIAP BIR-3 was under 100 nM in each case. The compound further gave a CC50 in test [1] of under 100 nM.

In the case of `CN[C@@H](C)C(=O)N[C@H](C(=O)N1CC[C@@H]2[C@H]1[C@@H](Oc1ccc(F)c(F)c1)CN2S(C)(=O)=O)C(C)(C)C` [Example 19, N-{1-[6-(3,4-Difluoro-phenoxy)-4-methanesulfonyl-hexahydro-pyrrolo[3,2-b]pyrrole-1-carbonyl]-2,2-dimethyl-propyl}-2-methylamino-propionamide], the Kd at cIAP-1 BIR-3 and on XIAP BIR-3 was under 100 nM in each case. The same compound returned a CC50 in test [1] of under 100 nM.

For `CN[C@@H](C)C(=O)N[C@H](C(=O)N1CC[C@@H]2[C@H]1[C@@H](Oc1ccc(F)c(F)c1)CN2S(=O)(=O)CC(C)C)C(C)(C)C` [Example 20, N-{1-[6-(3,4-Difluoro-phenoxy)-4-(2-methyl-propane-1-sulfonyl)-hexahydro-pyrrolo[3,2-b]pyrrole-1-carbonyl]-2,2-dimethyl-propyl}-2-methylamino-propionamide], the Kd on cIAP-1 BIR-3 and at XIAP BIR-3 was under 100 nM each time. In test [1], this compound displayed a CC50 of under 100 nM.

Turning to `CN[C@@H](C)C(=O)N[C@H](C(=O)N1CC[C@@H]2[C@H]1[C@@H](Oc1ccc(F)c(F)c1)CN2C(C)=O)C(C)(C)C` [Example 21, N-{1-[4-Acetyl-6-(3,4-difluoro-phenoxy)-hexahydro-pyrrolo[3,2-b]pyrrole-1-carbonyl]-2,2-dimethyl-propyl}-2-methylamino-propionamide], the Kd on cIAP-1 BIR-3 was under 100 nM; on XIAP BIR-3, 100 to 1000 nM. In addition, the CC50 in test [1] is under 100 nM.

For the compound `CN[C@@H](C)C(=O)N[C@H](C(=O)N1CC[C@@H]2[C@H]1[C@@H](Oc1ccc(F)c(F)c1)CN2C(=O)CC(C)C)C(C)(C)C` [Example 22, N-{1-[6-(3,4-Difluoro-phenoxy)-4-(3-methyl-butyryl)-hexahydro-pyrrolo[3,2-b]pyrrole-1-carbonyl]-2,2-dimethyl-propyl}-2-methylamino-propionamide], the Kd at cIAP-1 BIR-3 and at XIAP BIR-3 was under 100 nM each time. Also, in test [1], the CC50 was under 100 nM.

With `CNC(=O)N1C[C@H](Oc2ccc(F)c(F)c2)[C@@H]2[C@H]1CCN2C(=O)[C@@H](NC(=O)[C@H](C)NC)C(C)(C)C` [Example 23, 3-(3,4-Difluoro-phenoxy)-4-[3,3-dimethyl-2-(2-methylamino-propionylamino)-butyryl]-hexahydro-pyrrolo[3,2-b]pyrrole-1-carboxylic acid methylamide], the Kd on cIAP-1 BIR-3 and on XIAP BIR-3 was under 100 nM each time. Also, the CC50 in test [1] was under 100 nM.

For `CN[C@@H](C)C(=O)N[C@H](C(=O)N1CC[C@@H]2[C@H]1[C@@H](Oc1ccc(F)c(F)c1)CN2C(=O)NC(C)C)C(C)(C)C` [Example 24, 3-(3,4-Difluoro-phenoxy)-4-[3,3-dimethyl-2-(2-methylamino-propionylamino)-butyryl]-hexahydro-pyrrolo[3,2-b]pyrrole-1-carboxylic acid isopropylamide], the Kd on cIAP-1 BIR-3 and on XIAP BIR-3 was under 100 nM throughout. In test [1], this compound registered a CC50 of under 100 nM.

Consider `CN[C@@H](C)C(=O)N[C@H](C(=O)N1CC[C@@H]2[C@H]1[C@@H](Oc1ccc(F)c(F)c1)CN2C(=O)N(C)C)C(C)(C)C` [Example 25, 3-(3,4-Difluoro-phenoxy)-4-[3,3-dimethyl-2-(2-methylamino-propionylamino)-butyryl]-hexahydro-pyrrolo[3,2-b]pyrrole-1-carboxylic acid dimethylamide], for which the Kd on cIAP-1 BIR-3 and at XIAP BIR-3 was under 100 nM throughout. In test [1], this compound showed a CC50 of under 100 nM.

As to `CNC(=O)N1C[C@H](Oc2ccc(F)cc2)[C@@H]2[C@H]1CCN2C(=O)[C@@H](NC(=O)[C@H](C)NC)C1CCCCC1` [Example 26, 4-[2-Cyclohexyl-2-(2-methylamino-propionylamino)-acetyl]-3-(4-fluoro-phenoxy)-hexahydro-pyrrolo[3,2-b]pyrrole-1-carboxylic acid methylamide], the Kd on cIAP-1 BIR-3 and at XIAP BIR-3 was under 100 nM in each case. The CC50 in test [1] was under 100 nM.

In the case of `CNC(=O)N1C[C@H](Oc2ccc(F)cc2)[C@@H]2[C@H]1CCN2C(=O)[C@@H](NC(=O)[C@H](C)NC)C(C)(C)C` [Example 27, 4-[3,3-Dimethyl-2-(2-methylamino-propionylamino)-butyryl]-3-(4-fluoro-phenoxy)-hexahydro-pyrrolo[3,2-b]pyrrole-1-carboxylic acid methylamide], the Kd at cIAP-1 BIR-3 and on XIAP BIR-3 was under 100 nM each time. Moreover, the CC50 in test [1] was under 100 nM.

As for `CN[C@@H](C)C(=O)N[C@H](C(=O)N1CC[C@@H]2[C@H]1[C@@H](Oc1ccc(F)cc1)CN2C(=O)NC(C)C)C1CCCCC1` [Example 28, 4-[2-Cyclohexyl-2-(2-methylamino-propionylamino)-acetyl]-3-(4-fluoro-phenoxy)-hexahydro-pyrrolo[3,2-b]pyrrole-1-carboxylic acid isopropylamide], the Kd on cIAP-1 BIR-3 and at XIAP BIR-3 was under 100 nM throughout. In test [1], the CC50 was under 100 nM.

For the compound `CN[C@@H](C)C(=O)N[C@H](C(=O)N1CC[C@@H]2[C@H]1[C@@H](Oc1ccc(F)cc1)CN2C(=O)NC(C)C)C(C)(C)C` [Example 29, 4-[3,3-Dimethyl-2-(2-methylamino-propionylamino)-butyryl]-3-(4-fluoro-phenoxy)-hexahydro-pyrrolo[3,2-b]pyrrole-1-carboxylic acid isopropylamide], the Kd at cIAP-1 BIR-3 and on XIAP BIR-3 was under 100 nM in each case. In test [1], this compound had a CC50 of under 100 nM.

As for `CN[C@@H](C)C(=O)N[C@H](C(=O)N1CC[C@@H]2[C@H]1[C@@H](OCc1ccc(F)cc1)CN2C(=O)NCc1ccccc1)C(C)(C)C` [Example 30, 4-[3,3-Dimethyl-2-(2-methylamino-propionylamino)-butyryl]-3-(4-fluoro-benzyloxy)-hexahydro-pyrrolo[3,2-b]pyrrole-1-carboxylic acid benzylamide], the Kd at cIAP-1 BIR-3 and at XIAP BIR-3 was under 100 nM each time. Moreover, the CC50 in test [1] was under 100 nM.

As to `CN[C@@H](C)C(=O)N[C@H](C(=O)N1CC[C@H]2NC[C@H](OCc3ccccc3)[C@H]21)C1CCCCC1` [Example 31, (S)—N—((S)-2-((3aR,6S,6aS)-6-(benzyloxy)hexahydropyrrolo[3,2-b]pyrrol-1(2H)-yl)-1-cyclohexyl-2-oxoethyl)-2-(methylamino)propanamide], the Kd on cIAP-1 BIR-3 is under 100 nM; on XIAP BIR-3, 100 to 1000 nM. In test [1], this compound gave a CC50 of 100 to 1000 nM.

In the case of `CN[C@@H](CF)C(=O)N[C@H](C(=O)N1CC[C@@H]2[C@H]1[C@@H](OCc1ccccc1)CN2C(=O)OC(C)(C)C)C1CCCCC1` [Example 32, 3-Benzyloxy-4-[2-cyclohexyl-2-(3-fluoro-2-methylamino-propionylamino)-acetyl]-hexahydro-pyrrolo[3,2-b]pyrrole-1-carboxylic acid tert-butyl ester], the dissociation constant (Kd) at cIAP-1 BIR-3 and at XIAP BIR-3 was under 100 nM throughout. The CC50 in test [1] was 100 to 1000 nM.

Regarding `CN[C@@H](CF)C(=O)N[C@H](C(=O)N1CC[C@H]2NC[C@H](OCc3ccccc3)[C@H]21)C1CCCCC1` [Example 33, N-[2-(6-Benzyloxy-hexahydro-pyrrolo[3,2-b]pyrrol-1-yl)-1-cyclohexyl-2-oxo-ethyl]-3-fluoro-2-methylamino-propionamide], the Kd on cIAP-1 BIR-3 was under 100 nM; on XIAP BIR-3 it was 100 to 1000 nM. In test [1], this compound came in with a half-maximal cytotoxic concentration (CC50) of over 10000 nM.
